We go through 28 compounds from patent publication US20240228488A1 (TAKEDA PHARMACEUTICAL COMPANY LIMITED, priority 2021, published 2024).

pEC50: −log10 of the molar value. Some results are limits rather than exact numbers.

Chain of human activated kallikrein enzyme (P03952 391-638 limits assumed): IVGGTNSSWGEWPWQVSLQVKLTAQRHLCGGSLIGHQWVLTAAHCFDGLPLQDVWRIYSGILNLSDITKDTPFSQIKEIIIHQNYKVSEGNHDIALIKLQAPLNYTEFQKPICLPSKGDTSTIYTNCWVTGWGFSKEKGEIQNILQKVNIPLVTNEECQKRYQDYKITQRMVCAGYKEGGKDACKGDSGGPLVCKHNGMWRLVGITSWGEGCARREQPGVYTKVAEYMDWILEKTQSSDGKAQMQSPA
Chain of human activated kallikrein enzyme (P03952 20-390 partner limits assumed): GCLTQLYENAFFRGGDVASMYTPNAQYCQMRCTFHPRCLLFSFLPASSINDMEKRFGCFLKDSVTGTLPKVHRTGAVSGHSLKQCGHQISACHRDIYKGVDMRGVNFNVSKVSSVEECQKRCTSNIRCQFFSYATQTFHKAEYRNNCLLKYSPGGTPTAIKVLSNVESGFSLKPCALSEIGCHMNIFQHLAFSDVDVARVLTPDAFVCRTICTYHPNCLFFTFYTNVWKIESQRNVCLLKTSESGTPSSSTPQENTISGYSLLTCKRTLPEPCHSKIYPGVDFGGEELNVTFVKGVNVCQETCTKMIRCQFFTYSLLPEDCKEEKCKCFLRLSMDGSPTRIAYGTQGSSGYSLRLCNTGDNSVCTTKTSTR

The target of this assay is human activated kallikrein enzyme (Homo sapiens, UniProt P03952). Kind of assay: Plasma kallikrein inhibition, fluorogenic PFR-AMC substrate, 500 pM activated kallikrein format. Particulars: 500 pM activated kallikrein, 300 uM PFR-AMC, 30 min preincubation, 10 min reaction; read-out: Primary Dose Response Assay: Average EC50. It is filed as biochemical. In short, it runs like this:
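Fluorogenic readout (ex 380 / em 460 nm) after 10 min room-temperature reaction with 300 uM Pro-Phe-Arg-AMC substrate, following 30 min preincubation of inhibitors with 500 pM enzyme. Buffer: Tris pH 7.5, EDTA, NaCl, PEG-400, Triton X-100. Values given as EC50 ranges.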
Turning to `O=C(Nc1cc(NCc2cn3cc(C4CC4)ccc3n2)ccn1)[C@H]1C[C@@H]1c1n[nH]c2ccc(Cl)cc12` (racemic) [Example I-225, rac-(1S*,2S*)-2-(5-chloro-1H-indazol-3-yl)-N-(4-(((6-cyclopropylimidazo[1,2-a]pyridin-2-yl)methyl)amino)pyridin-2-yl)cyclopropane-1-carboxamide], the pEC50 (as a rule, −log10 of the EC50, conventionally taken in molar units) is less than 5.22.
In the case of `Nc1cc(Cl)cc([C@H]2C[C@@H]2C(=O)Nc2cc(NCc3cn4cc(C5CC5)ccc4n3)ncn2)c1` (racemic) [Example I-256, rac-(1S*,2S*)-2-(3-amino-5-chlorophenyl)-N-(6-(((6-cyclopropylimidazo[1,2-a]pyridin-2-yl)methylamino)pyrimidin-4-yl)cyclopropane-1-carboxamide] it was 7.00 to 8.00; in that of `O=C(Nc1cc(NCc2cn3cc(C4CC4)ccc3n2)ncn1)[C@H]1C[C@@H]1c1cc(Cl)ccn1` (racemic) [Example I-265, rac-(1S*,2S*)-2-(4-chloropyridin-2-yl)-N-(6-(((6-cyclopropylimidazo[1,2-a]pyridin-2-yl)methyl)amino)pyrimidin-4-yl)cyclopropane-1-carboxamide], 8.00 to 9.00.
Then `O=C(Nc1cc(NCc2cn3cc(C4CC4)ccc3n2)ccn1)[C@@H]1C[C@]12CCc1ccc(Cl)cc12` (racemic) [Example I-271, rac-(1S*,2S*)-6′-chloro-N-(4-(((6-cyclopropylimidazo[1,2-a]pyridin-2-yl)methyl)amino)pyridin-2-yl)-2′,3′-dihydrospiro[cyclopropane-1,1′-indene]-2-carboxamide], with greater than 9.00.
In the case of `O=C(Nc1cc(NCc2cn3cc(C4CC4)cc(N4C[C@H](O)CC4=O)c3n2)ncn1)[C@H]1C[C@@H]1c1cccc(Cl)c1` (relative stereo) [Example 65, rac-(1S*,2S*)-2-(3-chlorophenyl)-N-(6-(((6-cyclopropyl-8-((R)-4-hydroxy-2-oxopyrrolidin-1-yl)imidazo[1,2-a]pyridin-2-yl)methyl)amino)pyrimidin-4-yl)cyclopropane-1-carboxamide], the pEC50 is 8.00 to 9.00.
Consider `CC1CCN(c2cc(C3CC3)cn3cc(CNc4cc(NC(=O)[C@H]5C[C@@H]5c5cccc(Cl)c5)ncn4)nc23)C1=O` (relative stereo) [Example 67, rac-(1S*,2S*)-2-(3-chlorophenyl)-N-(6-(((6-cyclopropyl-8-(3-methyl-2-oxopyrrolidin-1-yl)imidazo[1,2-a]pyridin-2-yl)methyl)amino)pyrimidin-4-yl)cyclopropane-1-carboxamide], for which the pEC50 was 8.00 to 9.00.
Turning to `CC1OCCN(c2cc(C3CC3)cn3cc(CNc4cc(NC(=O)[C@H]5C[C@@H]5c5cccc(Cl)c5)ncn4)nc23)C1=O` (relative stereo) [Example 68, rac-(1S*,2S*)-2-(3-chlorophenyl)-N-(6-(((6-cyclopropyl-8-(2-methyl-3-oxomorpholino)imidazo[1,2-α]pyridin-2-yl)methyl)amino)pyrimidin-4-yl)cyclopropane-1-carboxamide], the negative logarithm of the EC50 (pEC50) is 8.00 to 9.00.
In the case of `C[S+]([O-])c1nc(NCc2cn3cc(C4CC4)ccc3n2)cc(NC(=O)[C@H]2C[C@@H]2c2cccc(Cl)c2)n1` (relative stereo) [Example 109, rac-(1S*,2S*)-2-(3-chlorophenyl)-N-(6-(((6-cyclopropylimidazo[1,2-a]pyridin-2-yl)methyl)amino)-2-(methylsulfinyl)pyrimidin-4-yl)cyclopropane-1-carboxamide] it was 8.00 to 9.00; in that of `O=C(Nc1cc(NCc2cn3cc(C4CC4)cc(N4CCCC4=O)c3n2)ccn1)[C@@H]1C[C@H]1c1cccc(Cl)c1` (relative stereo) [Example 118], greater than 9.00.
In the case of `N#Cc1ccc(Cl)cc1[C@H]1C[C@@H]1C(=O)Nc1cc(C(O)c2cn3cc(C4CC4)ccc3n2)ncn1` (relative stereo) [Example 352, rac-(1S*,2S*)-2-(5-chloro-2-cyanophenyl)-N-(6-((6-cyclopropylimidazo[1,2-a]pyridin-2-yl)(hydroxy)methyl)pyrimidin-4-yl)cyclopropane-1-carboxamide], the negative logarithm of the EC50 (pEC50) is 7.00 to 8.00.
As to `Cc1nc(NC(=O)[C@H]2C[C@@H]2c2nsc(C)n2)cc(N[C@H](C)c2cn3cc(C4CC4)cc(N4CC(=O)N(C)C4=O)c3n2)n1` (relative stereo) [Example 527, rac-(1S*,2S*)-N-(6-(((R)-1-(6-cyclopropyl-8-(3-methyl-2,4-dioxoimidazolidin-1-yl)imidazo[1,2-a]pyridin-2-yl)ethyl)amino)-2-methylpyrimidin-4-yl)-2-(5-methyl-1,2,4-thiadiazol-3-yl)cyclopropane-1-carboxamide], the negative-log EC50 (pEC50) was 8.00 to 9.00.
Turning to `Cc1ccnc([C@H]2C[C@@H]2C(=O)Nc2cc(N3C[C@@H](O)C[C@@H]3c3cn4cc(C5CC5)ccc4n3)ncn2)c1F` (relative stereo) [Example 542, rac-(1S*,2S*)-N-(6-((2R,4S)-2-(6-cyclopropylimidazo[1,2-a]pyridin-2-yl)-4-hydroxypyrrolidin-1-yl)pyrimidin-4-yl)-2-(3-fluoro-4-methylpyridin-2-yl)cyclopropane-1-carboxamide], the pEC50 was 7.00 to 8.00.
`O=C(Nc1cc(NCc2cn3cc(C4CC4)ccc3n2)ccn1)[C@@H]1C[C@]12CCc1ccc(Cl)cc12` (relative stereo) [Example I-272, rac-(1S*,2S*)-6′-chloro-N-(4-(((6-cyclopropylimidazo[1,2-a]pyridin-2-yl)methyl)amino)pyridin-2-yl)-2′,3′-dihydrospiro[cyclopropane-1,1′-indene]-2-carboxamide]: the pEC50 is 5.22 to 6.00.
For the compound `Cc1ccnc([C@@H]2C[C@H]2C(=O)Nc2cc(OCc3cn4cc(C5CC5)cc(N5CC(=O)N(C)C5=O)c4n3)ncn2)n1` (single isomer, unassigned) [Example 29], the pEC50 is 6.00 to 7.00.
As for `Cc1ccnc([C@H]2C[C@@H]2C(=O)Nc2cc(O[C@@H](C)c3cn4cc(C5CC5)cc(N5CC(=O)N(C)C5=O)c4n3)cnn2)n1` (single isomer, unassigned) [Example 41], the negative logarithm of the EC50 (pEC50) was 7.00 to 8.00.
With `Cc1ccnc([C@H]2C[C@@H]2C(=O)Nc2cc(O[C@H](C)c3cn4cc(C5CC5)cc(N5CC(=O)N(C)C5=O)c4n3)cnn2)n1` (single isomer, unassigned) [Example 42], the negative-log EC50 (pEC50) was greater than 9.00.
Take `O=C(Nc1cc(NCc2cn3cc(C4CC4)ccc3n2)ncn1)[C@@H]1C[C@H]1c1cccc(Cl)c1` (single isomer, unassigned) [Example 56]: the negative-log EC50 (pEC50) is 6.00 to 7.00.
As to `N#Cc1ccc(Cl)cc1[C@@H]1C[C@H]1C(=O)Nc1cc(NCc2cn3cc(C4CC4)ccc3n2)ccn1` (single isomer, unassigned) [Example 83], the pEC50 was 7.00 to 8.00.
As to `N#Cc1ccc(Cl)cc1[C@H]1C[C@@H]1C(=O)Nc1cc(NCc2cn3cc(C4CC4)ccc3n2)ccn1` (single isomer, unassigned) [Example 84], the pEC50 was greater than 9.00.
With `O=C(Nc1cc(NCc2cn3cc(C4CC4)ccc3n2)ccn1)[C@@H]1C[C@H]1c1cccc(Cl)c1` (single isomer, unassigned) [Example 116], the negative-log EC50 (pEC50) was 6.00 to 7.00.
For the compound `Cc1ccnc([C@@H]2C[C@H]2C(=O)Nc2cc(NCc3cn4cc(C5CC5)cc(S(C)(=O)=O)c4n3)ncn2)n1` (single isomer, unassigned) [Example 323], the pEC50 is 7.00 to 8.00.
Consider `Cc1ccnc([C@H]2C[C@@H]2C(=O)Nc2cc(N[C@@H](C)c3cn4cc(C5CC5)cc(N5CC(=O)N(C)C5=O)c4n3)ncn2)n1` (single isomer, unassigned) [Example 452], for which the negative-log EC50 (pEC50) is 7.00 to 8.00.
Consider `C[C@H]1[C@H](C(=O)Nc2cc(NCc3cn4cc(C5CC5)ccc4n3)ncn2)[C@H]1c1cccc(Cl)c1` (single isomer, unassigned) [Example 505, (1R*,2R*,3S*)-2-(3-chlorophenyl)-N-(6-(((6-cyclopropylimidazo[1,2-a]pyridin-2-yl)methyl)amino)pyrimidin-4-yl)-3-methylcyclopropane-1-carboxamide], for which the pEC50 is 7.00 to 8.00.
`C[C@H]1[C@H](C(=O)Nc2cc(NCc3cn4cc(C5CC5)ccc4n3)ncn2)[C@H]1c1cccc(Cl)c1` (single isomer, unassigned) [Example 506, (1R*,2R*,3S*)-2-(3-chlorophenyl)-N-(6-(((6-cyclopropylimidazo[1,2-a]pyridin-2-yl)methyl)amino)pyrimidin-4-yl)-3-methylcyclopropane-1-carboxamide]: the negative logarithm of the EC50 (pEC50) is less than 5.22.
With `C[C@H]1[C@H](C(=O)Nc2cc(NCc3cn4cc(C5CC5)ccc4n3)ncn2)[C@H]1c1cccc(Cl)c1` (single isomer, unassigned) [Example 507, (1R*,2R*,3S*)-2-(3-chlorophenyl)-N-(6-(((6-cyclopropylimidazo[1,2-a]pyridin-2-yl)methyl)amino)pyrimidin-4-yl)-3-methylcyclopropane-1-carboxamide], the pEC50 is less than 5.22.
For the compound `C[C@H]1[C@H](C(=O)Nc2cc(NCc3cn4cc(C5CC5)ccc4n3)ncn2)[C@H]1c1cccc(Cl)c1` (single isomer, unassigned) [Example 508, (1R*,2R*,3S*)-2-(3-chlorophenyl)-N-(6-(((6-cyclopropylimidazo[1,2-a]pyridin-2-yl)methyl)amino)pyrimidin-4-yl)-3-methylcyclopropane-1-carboxamide], the pEC50 is less than 5.22.
`CC(NC(=O)[C@H]1C[C@@H]1c1cccc(Cl)c1)c1cn(Cc2cn3cc(C4CC4)ccc3n2)nn1` (single isomer, unassigned) [Example 589, rac-(1S*,2S*)-2-(3-chlorophenyl)-N-(1-(1-((6-cyclopropylimidazo[1,2-a]pyridin-2-yl)methyl)-1H-1,2,3-triazol-4-yl)ethyl)cyclopropane-1-carboxamide]: the pEC50 was 7.00 to 8.00.
With `CC(NC(=O)[C@H]1C[C@@H]1c1cccc(Cl)c1)c1cn(Cc2cn3cc(C4CC4)ccc3n2)nn1` (single isomer, unassigned) [Example 590, rac-(1S*,2S*)-2-(3-chlorophenyl)-N-(1-(1-((6-cyclopropylimidazo[1,2-a]pyridin-2-yl)methyl)-1H-1,2,3-triazol-4-yl)ethyl)cyclopropane-1-carboxamide], the pEC50 was 7.00 to 8.00.
